# Literature values as cited in patent US12697315B2, “Treatment for interstitial lung disease” (United Therapeutics Corporation, priority 2020, dated 2026).
# Where two headings read alike, the source gives them in different places.
# System: IPF
# Conditions: 52 weeks, cited from earlier work
SMILES,"FVC % predicted, placebo corrected, rate of decline","FVC, placebo corrected, rate of decline","FVC, placebo corrected, rate of decline (pirfenidone)"
"COC(=O)c1ccc2c(c1)NC(=O)/C2=C(\Nc1ccc(N(C)C(=O)CN2CCN(C)CC2)cc1)c1ccccc1 [Nintedanib, nintedanib]",3.2 % predicted,~ 109 mL,–
"Cc1ccc(=O)n(-c2ccccc2)c1 [Pirfenidone, pirfenidone]",–,–,153 to 193 mL
